Laboratory results as given in the SangsterLogP compilation.

logP | SMILES
1.17 | N#Cc1cc(-c2ccncc2)cnc1NCCO
2.07 | C=CCNc1ncc(-c2ccncc2)cc1C#N
1.14 | N#Cc1cc(-c2ccncc2)cnc1N(CCO)CCO
2.03 | COCCCNc1ncc(-c2ccncc2)cc1C#N
1.93 | N#Cc1cc(-c2ccncc2)cnc1NCCCCO
3.45 | N#Cc1cc(-c2ccncc2)cnc1NCc1ccccc1
0.79 | CC(O)CNc1ncc(-c2ccncc2)cc1C#N (stereo not given)
2.28 | COC(CNc1ncc(-c2ccncc2)cc1C#N)OC
2.13 | CN(C)c1ncc(-c2ccncc2)cc1C#N
2.33 | CCNc1ncc(-c2ccncc2)cc1C#N
2.95 | N#Cc1cc(-c2ccncc2)cnc1N1CCCC1
1.04 | CCC(CO)Nc1ncc(-c2ccncc2)cc1C#N (stereo not given)
1.74 | N#Cc1cc(-c2ccncc2)cnc1Cl
1.42 | N#Cc1cc(-c2ccncc2)cnc1NCCCO
1.62 | N#Cc1cc(-c2ccncc2)cnc1NCCOCCO
